This is an account of results in ChEMBL document CHEMBL1201862, “PubChem BioAssay data set” (2004).

Test [1] is described as follows: inhibitors of intracellular T. cruzi replication, confirmation, NIH3T3 host cells, beta-gal luminescence (AID 2044).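 Note: intracellular parasites grown in NIH/3T3 mouse fibroblasts as host cells; luminescent beta-galactosidase reporter signal from transgenic T. cruzi replicating inside host cells; inhibitors lower the luminescence signal.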 Type of test: functional, cell-based.
Test [2] can be described thus: cytotoxicity toward NIH3T3 fibroblasts, dose response, counter-screen, cell-based, ATP luminescence, mouse fibroblasts (AID 2010).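 Note: cells exposed to compound for about 90 hours before reading.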 It counts as functional. Background: Counterscreens check selectivity or assay interference.
Test [3] concerns Streptococcus sp. 'group A'. Kind of test: growth inhibition of control SK(-) GAS strain, dose response, counter-screen for streptokinase expression inhibitor project, luminescence, kanamycin, BacTiterGlo, confirmation (AID 1900). Type of test: functional, organism-based.
Test [4] relates to Streptococcus. As to the kind of experiment: Group A Streptococcus viability loss, dose response, counter-screen for streptokinase expression inhibitor project, luminescence, BacTiterGlo (AID 1915).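 Note: potency for reduction of bacterial viability or growth.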 Type of test: functional, organism-based.
In test [5] the target is T1, Streptokinase A (Streptococcus pyogenes serotype M1, UniProt P10520).
T1 sequence (P10520 whole entry): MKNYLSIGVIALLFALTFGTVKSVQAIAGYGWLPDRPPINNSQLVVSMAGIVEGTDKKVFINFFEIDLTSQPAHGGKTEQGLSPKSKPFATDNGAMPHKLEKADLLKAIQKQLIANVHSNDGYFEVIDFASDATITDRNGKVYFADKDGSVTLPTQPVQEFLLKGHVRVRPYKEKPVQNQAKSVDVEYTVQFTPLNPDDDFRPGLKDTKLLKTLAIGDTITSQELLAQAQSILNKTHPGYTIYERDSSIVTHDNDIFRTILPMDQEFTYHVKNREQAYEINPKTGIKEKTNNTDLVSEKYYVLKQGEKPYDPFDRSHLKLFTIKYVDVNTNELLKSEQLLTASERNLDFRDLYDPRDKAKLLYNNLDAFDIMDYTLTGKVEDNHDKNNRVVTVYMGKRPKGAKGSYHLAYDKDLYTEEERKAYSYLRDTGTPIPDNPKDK
Kind of test: S. pyogenes streptokinase expression inhibitors, potency, dose response, plasminogen activation absorbance, OD405 (AID 1914).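 Note: secreted streptokinase activity via plasminogen activation per viability signal from cell pellet.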 It counts as functional, Streptococcus pyogenes M1 GAS.

Test [6] is described as follows: Luminescence Cell-Based Dose Retest to Confirm Inhibitors of Cancer Stem Cells. [Related pubchem assays (depositor defined):AID2717, AID2721]. It counts as functional, Homo sapiens. The settings on record: Homo sapiens.

Calls of active or inactive are those of the source. Cut-off read from the data, not from the text of the source, for most assays here: actives have a measured EC50 and inactives only a lower limit. Where only a bound is given, the exact number is not on record here.
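Throughout, for AC50: cells exposed to compound for roughly 70 hours or longer before luminescence read.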

For the compound `O=C1CC(NS(=O)(=O)c2ccc([N+](=O)[O-])cc2)CN1c1cccc(F)c1` (stereo unspecified), the values for the EC50 in test [1] and in test [2] were 1080 nM (active) and > 60 µM (not active), respectively.

Take `COc1cc(OC)cc(C(=O)NC(=S)N2CCCCC2c2cccnc2)c1` (stereo unspecified): the EC50 (commonly the concentration needed to bring the measured effect to its halfway point) is 769 nM (active) in test [1] and > 60 µM (not active) in test [2].

`Cc1ccc(-c2cc(C(F)F)n3ncc(C(=O)N4CCCCC4c4cccnc4)c3n2)cc1` (stereo unspecified): the EC50 in test [1] was 708 nM (active); in test [2], > 60 µM (inconclusive).

As to `CCc1ccc(NC2=NCC(c3ccccc3)S2)cc1` (stereo unspecified), the EC50 in test [3] is 8.39 µM (active); in test [4] it was 18.8 µM (active); in test [5] it was > 150 µM (not active).

As for `CCc1ccc(OCCCCN(C)Cc2ccccc2)cc1`, the values for the EC50 in test [1] and in test [2] were 213 nM (active) and > 60 µM (not active), respectively.

As for `Cc1cc(N/N=C/c2ccccc2O)nc(-c2ccccc2O)n1`, the figures for the EC50 in test [3] and in test [4] were 0.855 µM (active) and 2.9 µM (active), respectively.

For the compound `N#Cc1c(N)nc(Sc2ccc(Cl)cc2)c(C#N)c1-c1ccccc1Cl`, the values for the EC50 in test [3], in test [4] and in test [5] were 4.24 µM (active), > 150 µM (not active) and 13.2 µM (active), respectively.

`FC(F)(F)c1cccc(NC(=S)N(CCCN2CCCC2)Cc2cccn2Cc2ccc(Cl)cc2)c1`: the values for the EC50 in test [1] and in test [2] were 2150 nM (active) and > 60 µM (not active), respectively. In addition, in test [6], the AC50 (in general, the concentration at which the activity in the assay is half-maximal) is 3.37 µM (active).

As for `O=C(N/N=C\c1ccc(F)cc1)c1ccc(Cn2cc(Br)c([N+](=O)[O-])n2)o1`, the figures for the EC50 in test [1] and in test [2] were 761 nM (active) and > 60 µM (not active), respectively.

As to `CCc1ccc(/C=C2/SC(=S)N(CC(=O)Nc3nc4ccccc4s3)C2=O)cc1`, the EC50 in test [3] is 2.87 µM (active); in test [4], 35.4 µM (active); in test [5], > 150 µM (not active).

For `CCOC(=O)c1ccc(NC(S)=NN)cc1`, the EC50 in test [3] was 9.57 µM (active); in test [4], > 150 µM (not active).

As for `Cc1cc(C)c(S(=O)(=O)c2cc(F)ccc2C)c(Cl)n1`, the EC50 in test [1] is 1390 nM (active); in test [2] it was > 60 µM (not active).

Consider `CC1(C)CC2CC(C)(CN2S(=O)(=O)c2ccc(C(=O)Nc3ccc(Cl)c(S(=O)(=O)N4CCOCC4)c3)cc2)C1` (stereo unspecified), for which the values for the EC50 in test [1] and in test [2] were 2220 nM (active) and 21.6 µM (active), respectively.

In the case of `Fc1ccccc1C1c2[nH]c3ccccc3c2CCN1Cc1cccn1-c1ncccn1` (stereo unspecified), the EC50 was 1070 nM (active) in test [1] and > 60 µM (not active) in test [2].

Regarding `C=CCn1c(=O)c(C(=O)NCCc2ccccc2)c(O)c2ccccc21`, in test [6], the AC50 was 5.39 µM (active).

Regarding `CC1CC(NC(=O)c2c(O)n3ccsc3nc2=O)CC(C)(C)C1` (stereo unspecified), the EC50 in test [3] is 11.3 µM (active); in test [4] it was > 150 µM (not active); in test [5] it was 14.5 µM (active).

For `COc1ccc(CC(C)N2CCN(Cc3ccccc3)CC2)c(OC)c1` (stereo unspecified), the EC50 in test [1] was 502 nM (active); in test [2] it was > 30 µM (not active).

For the compound `C=CCn1c(SCCC)nc2sc3c(c2c1=O)CCc1ccccc1-3`, the AC50 in test [6] was 1.1 µM (active).

Regarding `O=C(Nc1ccc(Cl)cc1)Nc1ccccc1Sc1ncc([N+](=O)[O-])s1`, the AC50 in test [6] is 4.23 µM (active).

As for `CCCCOc1ccc(C(=O)CCN2CCOCC2)cc1`, the EC50 was 836 nM (active) in test [1] and > 60 µM (not active) in test [2].

On to `COCc1cc(CN2CCCC(C(=O)c3cccc(C(F)(F)F)c3)C2)ccc1OC` (stereo unspecified), for which the EC50 in test [1] is 100 nM (active); in test [2], > 60 µM (inconclusive).

Turning to `COc1cccc2sc3cc(C#CC4(O)CCCCC4)ccc3c(=O)c12`, the AC50 in test [6] is 2.4 µM (active).

On to `O=C(CSc1nnnn1-c1ccc(O)cc1)N1N=C(c2ccc3ccccc3c2)CC1c1ccccc1` (stereo unspecified), for which the figures for the EC50 in test [1] and in test [2] were 2080 nM (active) and > 60 µM (not active), respectively.

For the compound `CCOC(=O)c1ccc(NC(=S)NN)cc1`, the EC50 in test [5] was > 150 µM (not active).

`CC(C)c1nc(NCc2ccccc2)c(C#N)c2c1CCCC2`: the EC50 is 4.75 µM (active) in test [3], 12.2 µM (active) in test [4] and 1.96 µM (active) in test [5].

As for `O=C(c1cc([N+](=O)[O-])cc([N+](=O)[O-])c1)N1CCN(Cc2ccc3c(c2)OCO3)CC1`, the EC50 in test [1] is 306 nM (active); in test [2], > 60 µM (not active).

For the compound `COc1cccc(-c2sc3ccc(OC)cc3c2C#CCCO)c1`, the AC50 in test [6] was 2.79 µM (active).

As to `COc1ccc2sc(-c3ccc(N(C)C)cc3)c(-c3ccc4cc[nH]c4c3)c2c1`, the AC50 in test [6] was 3.54 µM (active).

For `C/C(=N\Nc1nc2ccccc2s1)c1ccc2c(c1)OCO2`, the EC50 is 16.7 µM (active) in test [3], 65.6 µM (active) in test [4] and > 150 µM (not active) in test [5].

On to `CCCOc1ccc(-c2nc(SCc3ccccc3)nc(O)c2C#N)cc1OC`, for which the EC50 was 3110 nM (active) in test [1] and 17.8 µM (active) in test [2].

On to `C=CCn1c(SC/C(O)=C(/C#N)C(C)=N)nc2sc(C)c(C)c2c1=O`, for which the EC50 is 6.33 µM (active) in test [3], 10 µM (active) in test [4] and > 150 µM (not active) in test [5].

With `CCCCn1c(O)c(N=NC(=O)c2ccccc2NS(=O)(=O)c2cccs2)c2ccccc21`, the results for the EC50 in test [3], in test [4] and in test [5] were 21.8 µM (active), 68.3 µM (active) and > 150 µM (not active), respectively.

Take `Oc1cccc(NC(=S)N=Nc2c(O)[nH]c3ccc(Br)cc23)c1`: the EC50 in test [3] is 1.22 µM (active); in test [4], 4.54 µM (active).

As for `COc1ccc(NC(=O)CCN2CCN(C/C=C/c3ccccc3)CC2)cc1`, the EC50 in test [1] is 686 nM (active); in test [2], > 60 µM (not active).

In the case of `Cc1cc(N2CCN(c3ccccc3Cl)CC2)n2cc(-c3ccccc3)nc2n1`, the EC50 was 11.5 µM (active) in test [3], 12 µM (active) in test [4] and > 150 µM (not active) in test [5].

As for `CC(NC(=O)c1cccc(Cn2cc([N+](=O)[O-])cn2)c1)c1ccc(C(C)(C)C)cc1` (stereo unspecified), the values for the EC50 in test [1] and in test [2] were 2590 nM (active) and > 60 µM (not active), respectively.

In the case of `CN1CCN(CC(=O)C23CC4CC(CC(C4)C2)C3)CC1`, the EC50 in test [1] was 225 nM (active); in test [2] it was > 30 µM (not active).

As to `CC(C)(C)c1cc(C(=O)NCCN2CCCC2)cc(C(C)(C)C)c1`, the EC50 was 4490 nM (active) in test [1] and > 30 µM (not active) in test [2].

As for `O=C(CNCCc1ccc(Cl)cc1)Nc1ccc(C(=O)N2CCCCC2)cc1`, the values for the EC50 in test [1] and in test [2] were 502 nM (active) and > 60 µM (not active), respectively.
